The values below come from PMC11865978, “Cellular Activity of CQWW Nullomer-Derived Peptides” (ACS Omega, 2025).

Holding throughout (type): cell-based, human
The test system of test [1] is GCGR-E28. As to conditions: 72 h. Here is the method:
(§1) Peptides were tested in an automated image-based high-content[42] cell painting[43],[44] assay that was originally developed to explore the mechanism of action of pharmacological and genetic perturbations within cells,[45] as well as a live cell imaging assay against six patient-derived glioblastoma cell lines (GCGR-E13, GCGR-E28, GCGR-E21, GCGR-E57, GCGR-E31, and GCGR-E34), covering classical, mesenchymal, and proneural subtypes, respectively (see Methods and Figure 1B–D), along with a healthy human fetal neuronal stem cell line (GCGR-NS9FB_B).
(§2) Cell survival was quantified by nuclei counts from the Hoechst dye-stained nuclei and IC50 values calculated along with 95% confidence intervals (Figure 1B; see Table S2 for full details). […]
(§3) High Content Phenotypic Screening assays
(§4) Cell lines (glioma stem cell lines and normal foetal neural stem cells) were seeded on laminin (10 µg/mL) coated 384-well plates (Greiner Bio-One, 781091) at 1,000 cells/well and incubated overnight at 37 °C and 5% CO2. Aqueous peptide solutions (10 mM) were further diluted to 1 mM in water containing 10 % glycerol and 0.01 % TX-100. Cells were dosed using a D300 digital dispenser (Tecan) by 10-point dose response (30 µM – 1 µM) in triplicate and with aqueous glycerol/TX-100 as control. The cells were placed in an IncuCyte live cell imager (Essen BioScience) and imaged every three hours for 72 hours. Prior to fixation, the plates were removed from the IncuCyte and stained with Mitrotracker DeepRed (Invitrogen, M22426, 300 nM, 30 minutes). Cells were then fixed using 4 % formaldehyde and permeabilized with 0.1 % TX-100 in PBS. The cells were stained with ‘Cell Painting’ […]
(§5) assay reagents1: Hoechst 33342 (10 mg/mL stock, Molecular Probes, 1:5000), SYTO14 […]
(§6) BSA/PBS. The plates were imaged using an ImageXpress high content microscope (Molecular Devices). Cells were imaged with a 20× objective, covering 6 fields-of-view in each well. The data was then analyzed using a custom CellProfiler software pipeline using the University of Edinburgh high performance computing cluster. Dose response plots were calculated using HC StratomineR (corelifeanalytics.com). Nuclei count data was analyzed separately to generate cell survival metrics (normalized to aqueous glycerol/TX -100 control). […]

Test [2] deals with GCGR-E31. The following applies: 72 h. Here is the method:
as §1, §2, §3, §4, §5, §6

Test [3] deals with GCGR-NS9FB_B. The following applies: 72 h. As to the method: as §1, §2, §3, §4, §5, §6
The test system of test [4] is patient-derived glioblastoma cell lines. The test is described as follows: Cell survival by nuclei counts, summarised across cell lines. The following applies: ratio of nuclei-count IC50s. As to the method:
as §1, §2, §3
Cell lines (glioma stem cell lines and normal foetal neural stem cells) were seeded on laminin (10 µg/mL) coated 384-well plates (Greiner Bio-One, 781091) at 1,000 cells/well and incubated overnight at 37 °C and 5% CO2. […]
BSA/PBS. […] The data was then analyzed using a custom CellProfiler software pipeline using the University of Edinburgh high performance computing cluster. Dose response plots were calculated using HC StratomineR (corelifeanalytics.com). Nuclei count data was analyzed separately to generate cell survival metrics (normalized to aqueous glycerol/TX -100 control). […]

The test system of test [5] is Met, ERBB2, CCND1, PTEN, PARP1, GSK3B. Put plainly: RPPA with STRING network analysis. As to conditions: peptide at 3 μM. As to the method: growth and stemness was further supported by the addition of laminin extracellular matrix (Cultrex 3446-005-01, 4-10 mg/mL) to the growth media and to create pre-coated flasks/384w plates. Cells were cultured in T75 cm2 flasks and passaged as follows: Glioma stem cells generally grow slowly (~60hrs doubling time, excepting GCGR-E57 cells ~24hrs) and lag phase was exacerbated by sparse seeding. Cell confluence is generally ~80 -90% prior to passaging, whereby the culture media was aspirated, the cells washed (PBS) and Accutase solution (Sigma A6964, 1 mL) was added to detach the cells, which were then incubated at 37 °C for <5 minutes. Cells were resuspended in media and centrifuged for 3 minutes at 300 × g. Resuspended cells were typically split 1:5, 1:8 (GCGR-E57 cells) and 1:2, 1:4 for the remainder of cell lines, depending on requirements . Cells were passaged every 4-7 days to maintain health and growth and discarded after 3 months, whereupon a fresh batch of cells […]
Culture media was aspirated and cells washed with wash media. […] A 10 μL sample of the cell suspension was pipetted onto the reading surface of a DeNovix CellDrop automated cell counter and the reading was used to dilute the suspension in complete media to 250,000 cells/mL. […]
The cell pellet preparation was performed on ice. […] The supernatant was aspirated, and the pellets were stored at -80 °C until ready for RPPA. […]

Broadly, the IC50 is the concentration that inhibits the measured activity by half. A low value points to greater potency in that assay.

Regarding H-RRRRRCQWW-NH2 [Peptide 2], the figures for the IC50 in test [1], in test [2] and in test [3] were 5.4 µM, 5.1 µM and 7.9 µM, respectively. Further, in test [4], the “selectivity for reduction in nuclei counts, glioblastoma stem cells compared to normal neural stem cells (GCGR-NS9FB_B)” value is 1.5- to 2 fold. The “proteins with decreased expression (RPPA, STRING network analysis)” value in test [5] is on record as “PTEN, PARP1, GSK3B”. Moreover, the “proteins with increased expression (RPPA, STRING network analysis)” value in test [5] is on record as “Met, ERBB2, CCND1”.
